Measured values reported in ChEMBL document CHEMBL1201862, “PubChem BioAssay data set” (2004).
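Protocol summary: plate cells (96-well), add compound at 5 concentrations, incubate 48 h, interpolate endpoints linearly. At the GI50, growth is halved.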 Calls of active or inactive are those of the source. Cut-off read from the data, not from the text of the source: active = GI50 up to about 1.1 µM and inactive = higher.

How the values were obtained:
Experiment in all cases: NCI tumour cell line growth inhibition, 48 h
[1] = system: MCF7
[2] = system: HT-29
[3] = system: BT-549
[4] = system: MDA-MB-231
[5] = system: NCI-H522
[6] = system: CCRF-CEM
[7] = system: K562
[8] = system: SK-MEL-28
[9] = system: CAKI-1
[10] = system: HCT-15
[11] = system: DU-145
[12] = system: NCI-H460
[13] = system: HCC 2998
[14] = system: NCI/ADR-RES
[15] = system: HOP-92
[16] = system: A549
[17] = system: HL-60
[18] = system: OVCAR-5
[19] = system: OVCAR-8
[20] = system: SF-539
[21] = system: SK-OV-3
[22] = system: HOP-62
[23] = system: ACHN
[24] = system: IGROV-1
[25] = system: 786-0
[26] = system: OVCAR-3
[27] = system: T47D
[28] = system: UO-31
[29] = system: PC-3
[30] = system: Hs-578T
[31] = system: A498
[32] = system: MDA-MB-435
[33] = system: OVCAR-4
[34] = system: M14
[35] = system: U-251
[36] = system: MDA-N
[37] = system: NCI-H226
[38] = system: SNB-75
[39] = system: SF-268
[40] = system: EKVX
[41] = system: SW-620
[42] = system: MOLT-4
[43] = system: Malme-3M
[44] = system: LOX IMVI
[45] = system: SN12C
[46] = system: KM12
[47] = system: RPMI-8226
[48] = system: UACC-257
[49] = system: SK-MEL-5
[50] = system: SK-MEL-2
[51] = system: SR
[52] = system: UACC-62
[53] = system: TK-10
[54] = system: RXF 393
[55] = system: SNB-19
[56] = system: HCT-116
[57] = system: NCI-H23
[58] = system: SF-295
[59] = system: COLO 205

With `CCN(Cc1cc(Cl)cc(C)c1O)Cc1c(O)ccc2ccccc12` the GI50 [1] was 19.9 µM (inactive), the GI50 [2] was 12.9 µM (inactive) and the GI50 [3] was 13.3 µM (inactive). For the same molecule, the GI50 [4] was 18.4 µM (inactive), the GI50 [5] was 11.2 µM (inactive) and the GI50 [6] was 10.5 µM (inactive). For the same molecule, the GI50 [7] was 19.1 µM (inactive), the GI50 [8] was 17.9 µM (inactive) and the GI50 [9] was 15.3 µM (inactive). For the same molecule, the GI50 [10] was 14.6 µM, the GI50 [11] was 20.2 µM (inactive) and the GI50 [12] was 18.2 µM (inactive). For the same molecule, the GI50 [13] was 16.8 µM (inactive), the GI50 [14] was 14.8 µM (inactive) and the GI50 [15] was 11.2 µM (inactive). For the same molecule, the GI50 [16] was 18.8 µM (inactive), the GI50 [17] was 12 µM (inactive) and the GI50 [18] was 17.6 µM (inactive). The GI50 [19] was 17.7 µM (inactive), the GI50 [20] was 13.3 µM (inactive) and the GI50 [21] was 15.2 µM (inactive). The GI50 [22] was 12.5 µM (inactive), the GI50 [23] was 17.3 µM (inactive) and the GI50 [24] was 15.3 µM (inactive). For the same molecule, the GI50 [25] was 16.8 µM (inactive), the GI50 [26] was 15 µM (inactive) and the GI50 [27] was 16.6 µM (inactive). The GI50 [28] was 16.2 µM (inactive), the GI50 [29] was 15.5 µM (inactive) and the GI50 [30] was 15.9 µM (inactive). For the same molecule, the GI50 [31] was 18.7 µM (inactive), the GI50 [32] was 15.8 µM (inactive) and the GI50 [33] was 17.1 µM (inactive). The GI50 [34] was 18.4 µM (inactive), the GI50 [35] was 17.1 µM (inactive) and the GI50 [36] was 18.1 µM (inactive). For the same molecule, the GI50 [37] was 19.1 µM (inactive), the GI50 [38] was 11.7 µM (inactive) and the GI50 [39] was 18.2 µM (inactive). The GI50 [40] was 17.3 µM (inactive), the GI50 [41] was 25.4 µM (inactive) and the GI50 [42] was 5.36 µM (inactive). The GI50 [43] was 14.5 µM (inactive), the GI50 [44] was 18.2 µM (inactive) and the GI50 [45] was 18.2 µM (inactive). For the same molecule, the GI50 [46] was 17.3 µM (inactive), the GI50 [47] was 17.4 µM (inactive) and the GI50 [48] was 15.8 µM (inactive). The GI50 [49] was 14.9 µM (inactive), the GI50 [50] was 16.4 µM (inactive) and the GI50 [51] was 16.2 µM (inactive). The GI50 [52] was 15.7 µM (inactive), the GI50 [53] was 17.1 µM (inactive) and the GI50 [54] was 16.4 µM (inactive). For the same molecule, the GI50 [55] was 18.5 µM (inactive), the GI50 [56] was 16.7 µM (inactive) and the GI50 [57] was 15.6 µM (inactive). For the same molecule, the GI50 [58] was 16.9 µM (inactive) and the GI50 [59] was 22.7 µM (inactive).

With `CC(=O)OC[C@@]1(C)[C@@H]2[C@@H]3[C@@]4(CO[C@]3(C)C(=O)[C@@]3(O)C[C@H](C)[C@H](OC(C)=O)[C@@H]3[C@H]4OC(C)=O)[C@H](OC(=O)c3ccccc3)C[C@@H]21` the GI50 [1] was > 100 µM (inactive), the GI50 [2] was > 100 µM (inactive) and the GI50 [3] was > 100 µM (inactive). For the same molecule, the GI50 [4] was > 100 µM (inactive), the GI50 [5] was > 100 µM (inactive) and the GI50 [6] was > 100 µM (inactive). The GI50 [7] was > 100 µM (inactive), the GI50 [8] was > 100 µM (inactive) and the GI50 [9] was > 100 µM (inactive). For the same molecule, the GI50 [10] was over 100 µM, the GI50 [11] was > 100 µM (inactive) and the GI50 [12] was > 100 µM (inactive). The GI50 [13] was > 100 µM (inactive), the GI50 [14] was > 100 µM (inactive) and the GI50 [15] was > 100 µM (inactive). The GI50 [16] was > 100 µM (inactive), the GI50 [17] was > 100 µM (inactive) and the GI50 [18] was > 100 µM (inactive). The GI50 [19] was > 100 µM (inactive), the GI50 [20] was > 100 µM (inactive) and the GI50 [21] was > 100 µM (inactive). The GI50 [22] was > 100 µM (inactive), the GI50 [23] was > 100 µM (inactive) and the GI50 [24] was > 100 µM (inactive). For the same molecule, the GI50 [25] was > 100 µM (inactive), the GI50 [26] was > 100 µM (inactive) and the GI50 [27] was > 100 µM (inactive). For the same molecule, the GI50 [28] was > 100 µM (inactive), the GI50 [29] was > 100 µM (inactive) and the GI50 [30] was > 100 µM (inactive). For the same molecule, the GI50 [31] was > 100 µM (inactive), the GI50 [32] was > 100 µM (inactive) and the GI50 [33] was > 100 µM (inactive). The GI50 [34] was > 100 µM (inactive), the GI50 [35] was > 100 µM (inactive) and the GI50 [36] was > 100 µM (inactive). The GI50 [37] was > 100 µM (inactive), the GI50 [38] was > 100 µM (inactive) and the GI50 [39] was > 100 µM (inactive). The GI50 [40] was > 100 µM (inactive), the GI50 [41] was > 100 µM (inactive) and the GI50 [42] was > 100 µM (inactive). The GI50 [43] was > 100 µM (inactive), the GI50 [44] was > 100 µM (inactive) and the GI50 [45] was > 100 µM (inactive). For the same molecule, the GI50 [46] was > 100 µM (inactive), the GI50 [47] was > 100 µM (inactive) and the GI50 [48] was > 100 µM (inactive). For the same molecule, the GI50 [49] was > 100 µM (inactive), the GI50 [50] was > 100 µM (inactive) and the GI50 [51] was > 100 µM (inactive). For the same molecule, the GI50 [52] was > 100 µM (inactive), the GI50 [53] was > 100 µM (inactive) and the GI50 [54] was > 100 µM (inactive). For the same molecule, the GI50 [55] was > 100 µM (inactive), the GI50 [56] was > 100 µM (inactive) and the GI50 [57] was > 100 µM (inactive). The GI50 [58] was > 100 µM (inactive) and the GI50 [59] was > 100 µM (inactive).
